Test results taken from patent US11654101B2, “Use of magnolia, juniper or violet absolute in cosmetics for depigmenting the skin” (ROBERTET S.A., priority 2017, dated 2023).

System: murine melanocytes B16-F10
Assay: Tests on B16 melanocytes, dosing of the intracellular melanin
Format: cell-based
Conditions: B16-F10 cells incubated 24 h at 37° C.; intracellular melanin content, absorbance 405 nm
Method: […] model tests on melanin-producing cells, the murine melanocytes B16-F10, have been necessary. The decrease in the cellular tyrosinase activity, associated with a reduction of the intracellular melanin content, while preserving the survival of the cells by non-cytotoxic concentrations, have then been investigated. For this purpose, the B16-F10 cells have been seeded into 24-well plates, and incubated for 24 h at 37° C. with several concentrations of different selected raw materials. […] Afterwards, the cells are lysed, and centrifuged. In turn, the cell pellet is dissolved by a NaOH 1N solution and incubated for 1 hour at 70° C. before being deposited in a 96-well plate put in the spectrophotometer at 405 nm. Afterwards, a comparison with the absorbance of a standard melanin calibrated range allows determining the intracellular melanin content of each condition and checking on the inhibitor effect of the melanogenesis by the different raw materials.

## O=c1cc(CO)occ1O [Kojic acid, kojic acid]
  Effective IC50: 214 ppm
